Source: the supplement of paper PMC13380429

Assays:
Conditions in all cases: 72 h
Calu-3 [1] = assay: cell viability relative to DMSO; higher = less toxic
Vero E6 [2] = assay: as above
U2OS [3] = assay: as above
Caco-2 [4] = assay: as above
HepG2 [5] = assay: as above
Calu-3 [6] = assay: drug sensitivity score (DSS) for viability; higher = more toxic; extreme values may be limits of the assay
Vero E6 [7] = assay: as above
U2OS [8] = assay: as above
Caco-2 [9] = assay: as above
HepG2 [10] = assay: as above
Vero E6 [11] = assay: relative viability EC50 (midpoint between 100% and the lowest measured viability); higher = less toxic
U2OS [12] = assay: as above
Caco-2 [13] = assay: as above
HepG2 [14] = assay: as above
Calu-3 [15] = assay: as above

Structure (SMILES)	cell viability (Calu-3 [1]; 1 nM) [%]	cell viability (Calu-3 [1]; 10 nM) [%]	cell viability (Calu-3 [1]; 100 nM) [%]	cell viability (Calu-3 [1]; 1000 nM) [%]	cell viability (Calu-3 [1]; 10000 nM) [%]	cell viability (Vero E6 [2]; 1 nM) [%]	cell viability (Vero E6 [2]; 10 nM) [%]	cell viability (Vero E6 [2]; 100 nM) [%]	cell viability (Vero E6 [2]; 1000 nM) [%]	cell viability (Vero E6 [2]; 10000 nM) [%]	cell viability (U2OS [3]; 1 nM) [%]	cell viability (U2OS [3]; 10 nM) [%]	cell viability (U2OS [3]; 100 nM) [%]	cell viability (U2OS [3]; 1000 nM) [%]	cell viability (U2OS [3]; 10000 nM) [%]	cell viability (Caco-2 [4]; 1 nM) [%]	cell viability (Caco-2 [4]; 10 nM) [%]	cell viability (Caco-2 [4]; 100 nM) [%]	cell viability (Caco-2 [4]; 1000 nM) [%]	cell viability (Caco-2 [4]; 10000 nM) [%]	cell viability (HepG2 [5]; 1 nM) [%]	cell viability (HepG2 [5]; 10 nM) [%]	cell viability (HepG2 [5]; 100 nM) [%]	cell viability (HepG2 [5]; 1000 nM) [%]	cell viability (HepG2 [5]; 10000 nM) [%]	drug sensitivity score (Calu-3 [6])	drug sensitivity score (Vero E6 [7])	drug sensitivity score (U2OS [8])	drug sensitivity score (Caco-2 [9])	drug sensitivity score (HepG2 [10])	relative viability EC50 (Vero E6 [11]) [µM]	relative viability EC50 (U2OS [12]) [µM]	relative viability EC50 (Caco-2 [13]) [µM]	relative viability EC50 (HepG2 [14]) [µM]	relative viability EC50 (Calu-3 [15]) [µM]
Oc1ccc2ccccc2c1Cc1c(O)ccc2ccccc12 [ST-1859]	87.4	94.8	91.9	93.9	64.6	98.3	104	102	93	95.2	95.1	101	98.2	104	96.5	90.3	92.6	97.5	101	75.8	103	102	93.9	90.7	86.9	2.7	0	0	0.8	0.5	> 10	> 10	> 10	> 10	
Nc1nnc(Sc2ncc([N+](=O)[O-])s2)s1 [SU3327]	99.7	104	99.2	100	62.7	101	101	98.8	95.6	1.4	103	92.7	98	93.4	0.1	105	104	103	94.2	8.8	100	104	96.1	76.2	0	1.8	6.1	6.5	5.9	9.2	2.83	2.64	2.66	1.59	
C=CC(=O)Nc1cccc(Oc2nc(Nc3ccc(N4CCN(C)CC4)cc3OC)ncc2Cl)c1 [WZ-4002]	94.4	97	90.8	88.6	56.9	98.6	102	103	88.4	78.1	94.5	101	98.9	99.3	93.5	101	95.9	94.9	94.4	83.7	98.1	101	101	104	109	3.5	2	0	0.3	0	> 10	> 10	> 10	> 10	
Cc1cc(C)c(NC(=O)N(Cc2ccc3c(c2)Cc2ccccc2-3)C2CCCCCC2)c(C)c1 [YM-750]	94.1	95.3	84.9	85.6	83.3	96.9	98.1	91.9	101	88.3	97.8	99.8	94.8	94.6	79.9	98.6	100	96.6	100	55	96.2	93.5	103	92.9	59.8	2.4	0	1	2.3	3.2	> 10	> 10			> 10
CC(C[N+](C)(C)C)OC(N)=O (centres undefined) [bethanechol]						99.3	91.8	103	86.8	98.2	100	98.8	98.3	95.5	95.7	121	111	118	97.4	104	97.1	104	92.1	106	106		0	0	0	0	> 10	> 10	> 10	> 10	
C[C@@H]1CCC[C@H](C)N1NC(=O)c1ccc(Cl)c(S(N)(=O)=O)c1 [clopamide]	102	106	104	104	95.1	99.4	102	104	99.4	105						94.5	104	110	105	104						0	0		0		> 10		> 10		> 10
Cc1onc(-c2ccccc2Cl)c1C(=O)N[C@@H]1C(=O)N2[C@@H]1SC(C)(C)[C@@H]2C(=O)O [cloxacillin]						94.5	97.6	99.7	98.2	106						102	99.7	98.5	109	95.8	107	116	104	90.8	109		0		0	0	> 10		> 10	> 10	
CN1[C@@H]2CC[C@H]1C[C@@H](OC1c3ccccc3CCc3ccccc31)C2 [deptropine]	98.8	107	108	97.8	72.8	96.4	93.8	98.8	93.8	77.3	101	106	99.9	103	93	92.1	97.5	96.3	92.5	83.4	102	96.3	102	98.6	76.7	1.4	1.6	0	0.3	1	> 10	> 10	> 10	> 10	
